Values quoted from earlier work as cited in patent US20250302745A1, “COMPOSITIONS COMPRISING VANCOMYCIN” (Arecor Limited, priority 2022, published 2025).

System: animal
Conditions: excipients of VancoReady; black box warning

| Molecule | finding in animal reproductive studies |
| --- | --- |
| CC(=O)N[C@H](C)C(=O)O [N-acetyl-D-alanine] | cause fetal malformations |
| PEG400 | cause fetal malformations |
